Laboratory results as given in patent US20190262323A1, “COMPOSITIONS AND METHODS FOR TREATING NEURODEGENERATIVE DISORDERS” (GEORGETOWN UNIVERSITY, priority 2016, published 2019).

Legend:
phosphorylated mTOR = experiment: MILLIPLEX Akt/mTOR phosphoprotein analysis; format: in vivo, transgenic APP mice; settings: mean fluorescent intensity; 1.25 or 2.5 mg/kg
Protocol: Transgenic mice harboring the Swedish, Dutch, and Iowa mutation for human amyloid beta-precursor protein were treated with intraperitoneal (IP) injections of 10 mg/kg, 5 mg/kg, 2.5 mg/kg, 1.25 mg/kg of LCB 03-0110 or 30 μL of dimethylsulfoxide (DMSO) every day for 1 week. LCB 03-0110 is a potent inhibitor of discoidin domain receptor 2 (DDR2) family tyrosine kinases. All animal experiments were conducted in full compliance with the recommendations of Georgetown University Animal Care and Use Committee (GUAUC). Fifteen mice were used for brain and blood extractions, and fifteen mice were used for drug treatments. Four transgenic APP mice were treated with DMSO, four transgenic APP mice were treated with 10 mg/kg of LCB 03-0110, four transgenic APP mice were treated with 5 mg/kg of LCB 03-0110, four transgenic APP mice were treated with 2.5 mg/kg of LCB 03-0110, and three transgenic APP mice were treated with 1.25 mg/kg of LCB 03-0110. […]
(§1) MILLIPLEX®: Cytokines and chemokines were measured in serum and brain with the Mouse Cytokine/Chemokine Magnetic Bead Panel (Cat MCYTOMAG-70K, EMD Millipore). Human amyloid beta and total tau was measured in brain using the Human Amyloid Beta and Tau Panel (Cat HNABTMAG-68K, EMD Millipore). AKT/mTOR signaling cascade phosphoproteins were measured using the Akt/mTOR Phosphoprotein Magnetic Bread 11-Plex Kit (Cat 48-611MAG, EMD Millipore). […]

cytokines and chemokines = experiment: MILLIPLEX Mouse Cytokine/Chemokine Magnetic Bead Panel; format: in vivo, transgenic APP mice; settings: 2.5 mg/kg or 1.25 mg/kg
Protocol: (§2) Transgenic mice harboring the Swedish, Dutch, and Iowa mutation for human amyloid beta-precursor protein were treated with intraperitoneal (IP) injections of 10 mg/kg, 5 mg/kg, 2.5 mg/kg, 1.25 mg/kg of LCB 03-0110 or 30 μL of dimethylsulfoxide (DMSO) every day for 1 week. LCB 03-0110 is a potent inhibitor of discoidin domain receptor 2 (DDR2) family tyrosine kinases. All animal experiments were conducted in full compliance with the recommendations of Georgetown University Animal Care and Use Committee (GUAUC). Fifteen mice were used for brain and blood extractions, and fifteen mice were used for drug treatments. Four transgenic APP mice were treated with DMSO, four transgenic APP mice were treated with 10 mg/kg of LCB 03-0110, four transgenic APP mice were treated with 5 mg/kg of LCB 03-0110, four transgenic APP mice were treated with 2.5 mg/kg of LCB 03-0110, and three transgenic APP mice were treated with 1.25 mg/kg of LCB 03-0110. Seven transgenic APP mice were treated with DMSO, and 7 transgenic APP mice were treated with 2.5 mg/kg of LCB.
MILLIPLEX®: Cytokines and chemokines were measured in serum and brain with the Mouse Cytokine/Chemokine Magnetic Bead Panel (Cat MCYTOMAG-70K, EMD Millipore). Human amyloid beta and total tau was measured in brain using the Human Amyloid Beta and Tau Panel (Cat HNABTMAG-68K, EMD Millipore). AKT/mTOR signaling cascade phosphoproteins were measured using the Akt/mTOR Phosphoprotein Magnetic Bread 11-Plex Kit (Cat 48-611MAG, EMD Millipore). Assays were performed according to the manufacturer's protocols.

APP mice = experiment: Morris water maze; format: in vivo; settings: 2.5 mg/kg for three weeks; by day three of training; average of three trials
Protocol: APP mice treated with either DMSO or 2.5 mg/kg LCB-03-0110 for 3 weeks were trained three times a day to find a submerged platform using visuospatial cues inside the apparatus. […] The mouse was allowed up to 60 seconds to find the platform, after which it would be removed from the apparatus after 5 seconds on the platform. If the animal was unable to find the platform, it was placed on the platform for 20 seconds. […] Data are shown as an average of three trials.

human amyloid beta = experiment: MILLIPLEX Human Amyloid Beta and Tau Panel, soluble and insoluble brain fractions; format: in vivo, transgenic APP mice; settings: 2.5 mg/kg daily for 3 weeks
Protocol: as §2, with “Transgenic mice harboring the Swedish, Dutch, and Iowa mutation for human amyloid beta-precursor protein were treated with intraperitoneal (IP) injections of 10 mg/kg, 5 mg/kg, 2.5 mg/kg, 1.25 mg/kg of LCB 03-0110 or 30 μL of dimethylsulfoxide (DMSO) every day for 1 week.” left out
(§3) Animals were deeply anesthetized with a mixture of Xylazine and Ketamine (1:8). Whole blood (500 μl) was collected via cardiac puncture and centrifuged at 2000×g to precipitate blood cells. The serum was collected for mass spectrometric analysis. To wash out the remaining blood from vessels and reduce contamination, animals were perfused with 25 ml of 1X phosphate buffered saline (PBS) for 5 min and the brains were collected. A hemisphere was frozen and stored at −80° C. for mass spectrometry studies and the other hemisphere was immediately homogenized in 2.0 ml lysis buffer (containing protease and phosphatase inhibitors) and labeled as a soluble protein fraction.
After removing the soluble supernatant, the tissue pellet was washed with 1×STEN buffer. […]
as §1

Tau [pS396] = experiment: Human Tau [pS396] solid phase sandwich ELISA on brain tissue homogenates from treated transgenic APP mice; format: in vivo
Protocol: as §2, §3
Human Tau [pS396] solid phase sandwich ELISA was performed on brain tissue homogenates from transgenic APP mice treated with LCB 03-0110 at 10 mg/kg, 5 mg/kg, 2.5 mg/kg, and 1.25 mg/kg. A monoclonal Tau capture antibody was coated onto micro-wells. 50 μl of soluble lysate was added to each well, allowing the Tau [pS396] antigen to bind to the immobilized capture antibody, and incubated for two hours at room temperature. After the two hour incubation, samples were washed and incubated with 100 μl of rabbit monoclonal tau [pS396] detection antibody and incubated for one hour at room temperature. Following extensive washing, a 100 μl of horseradish peroxidase labeled anti-rabbit IgG was added to each well and incubated for thirty minutes at room temperature. Samples were washed to remove all unbound enzyme. […] The magnitude of the absorbance for this developed color was proportional to the quantity of Tau […] proteins in the brain tissue homogenates. […] All statistics were performed using ANOVA with Tukey multiple comparison post-test and data were expressed as Mean±SD.

[1] = Pharmacokinetic analysis of brain and serum by mass spectrometry; format: in vivo, C57BL/6 mice
Protocol: C57BL/6 mice received a single IP dose of 1.25, 2.5, 5, or 10 mg/kg LCB, and brain and serum were collected at 2, 4, 6, or 8 hours (n=3 per dose and time point). Animals injected with vehicle (DMSO) were used for background subtraction. Drug levels were determined at the Georgetown University Proteomics and Metabolomics Shared Resources (PMSR). Stock solution for LCB-03110 [(approximately 1 mg/mL each) was prepared in methanol/dichloromethane (50:50). The serial dilutions for each of the standards were produced for the study separately in methanol/HPLC grade water (50:50). Preparation of the calibration curve standards and quality samples (QC) was performed by mixing the stock solutions in blank samples. The final calibration concentration for LCB-03110 ranged from 0.1 ng/mL to 100 ng/mL. The QC concentrations were 30 ng/mL, 3 ng/mL and 0.3 ng/mL, respectively. Serum and brain samples were stored at −80° C. and then thawed to room temperature prior to preparation. The thawed serum samples (20 μL) were transfused to a tube containing 100 μL of water. The 500 μL extraction solvent and acetonitrile/methanol (50:50) was added to the sample. The mixture was vortexed and incubated on ice for 20 minutes to accelerate protein precipitation. After incubation, the samples were vortexed again and centrifuged at 13,000 rpm for 20 minutes at 4° C. The supernatant was then collected and transferred to a new tube, was dried using speed vac, and reconstituted in 200 μL of methanol/water (50:50). The mixture was spun again at 13,000 rpm for 20 minutes at 4° C. The supernatant was then collected into a mass spec sample tube cap and run in the mass spectrometer. For brain, a small section of the thawed brain sample from each animal was transferred to a flat bottom tube. 200 μL of methanol/water (90:10) was added, and the tissue was homogenized. Acetonitrile was then added to the mixture facilitating protein precipitation. The mixture was then incubated on ice for 10 minutes. After incubation, the samples were vortexed and centrifuged at 13,000 rpm for 20 minutes at 4° C. The supernatant was then collected and transferred to a new tube, dried using speed vac, and reconstituted in 200 μL of methanol/water (50:50). The mixture was centrifuged at 13,000 rpm for 20 minutes at 4° C. The supernatant was collected into a mass spec sample tube cap and run in the mass spectrometer. The samples were resolved on an Acquity UPLC BEH C18 […], 2.1×50 mm column online with a triple quadrupole mass spectrometer (Xevo-TQ-S, Waters Corporation, USA) operating in the multiple reaction monitoring (MRM) mode. The sample cone voltage and collision energies were optimized for both analytes to obtain maximum ion intensity for parent and daughter ions using “Intelli Start” feature of MassLynx software (Waters Corporation, USA). The instrument parameters were optimized to gain maximum specificity and sensitivity of ionization for the parent [m/z=438.25] and daughter ions [m/z=357.33]. Signal intensities from all MRM Q1/Q3 ion pairs for analytes were ranked to ensure selection of the most intense precursor and fragment ion pair for MRM-based quantitation. […] Analysis was performed with a six to eight-point calibration curve, the sample queue was randomized and solvent blanks were injected to assess sample carryover. MRM data were processed using TargetLynx 4.1. The relative quantification values of analytes were determined by calculating the ratio of peak areas of transitions of samples normalized to the peak area of the internal standard.

[2] = system: beta-amyloid, synuclein and Tau; experiment: LCB-03-0110 tested in cell culture: levels of misfolded proteins; format: cell-based; settings: low doses (0.1-3 nM)
Protocol: shRNAs were designed to specifically knock down DDR1 and DDR2 receptors, and study their effects on clearance of misfolded protein accumulation in neurodegeneration. […] These shRNAs were then injected into animal models in vivo. […] A known DDR inhibitor, LCB-03-0110, was tested in cell culture. Low doses (0.1-3 nM) of LCB-03-0110 reduced the levels of beta-amyloid, synuclein and Tau in cell culture.

[3] = system: APP/Aβ, Aβ42, p-tau (AT180); experiment: Western blot of soluble brain fractions of treated APP mice: amyloid and p-tau; format: in vivo, transgenic APP mice
Protocol: as §2
Brain tissues from transgenic APP mice treated with LCB 03-0110 at 10 mg/kg, 5 mg/kg, 2.5 mg/kg, and 1.25 mg/kg were homogenized in 1×STEN buffer, centrifuged at 10,000×g for 20 min at 4° C., and the supernatants containing the soluble fraction were collected. Soluble fractions were probed with mouse monoclonal anti-6E10 (1:1000), rabbit polyclonal anti-Ab42 (1:1000), mouse monoclonal anti-AT180 (1:1000), rabbit polyclonal anti-Beclin-1 (1:1000), rabbit polyclonal anti-Atg7 (1:1000), rabbit polyclonal anti-Atg12 (1:1000), rabbit polyclonal anti-LC3B (1:1000) and rabbit polyclonal anti-actin (1:1000).

[4] = system: Beclin, Atg7, Atg12, LC3-I, LC3-II; experiment: Western blot of soluble brain fractions of treated APP mice: autophagy markers; format: in vivo, transgenic APP mice; settings: 1.25 or 2.5 mg/kg
Protocol: as §2
Brain tissues from transgenic APP mice treated with LCB 03-0110 at 10 mg/kg, 5 mg/kg, 2.5 mg/kg, and 1.25 mg/kg were homogenized in 1×STEN buffer, centrifuged at 10,000×g for 20 min at 4° C., and the supernatants containing the soluble fraction were collected. […]

[5] = brain response values (Area/IS Area), single IP dose

- Tmax of the plasma:brain ratio ([1]; 2.5 mg/kg): about 2 hours
- plasma:brain ratio, comparison of doses ([1]; 2.5 mg/kg, among 10, 5, 2.5 and 1.25 mg/kg): highest plasma:brain ratio
- drug concentration in the brain, comparison of doses ([1]; 10 mg/kg, among 10, 5, 2.5 and 1.25 mg/kg): highest drug concentration in the brain
- time at which washed out completely from the brain [1, 5]: about 4 hours
- time of peak in the brain [1, 5]: about 1 hour
- blood brain barrier penetration ([1]; single IP dose 1.25, 2.5, 5 or 10 mg/kg): penetrates the blood brain barrier
Structure (SMILES): Oc1cccc(Nc2ccnc3cc(-c4cccc(CN5CCOCC5)c4)sc23)c1 [LCB 03-0110, 3-(2-(3-(morpholinomethyl)phenyl)thieno[3,2-b]pyridine-7-ylamino)phenol]
- phosphorylated mTOR levels (phosphorylated mTOR): without altering
- RANTES levels (cytokines and chemokines): does not alter
- VEGF-A levels (cytokines and chemokines): reduces VEGF-A to control levels
- brain inflammation (cytokines and chemokines): reduced
- granulocyte colony-stimulating factor (G-CSF) (cytokines and chemokines): reductions
- granulocyte-macrophage colony-stimulating factor (GM-CSF) (cytokines and chemokines): reductions
- macrophage colony-stimulating factor (M-CSF) (cytokines and chemokines): reductions
- macrophage inflammatory factor 1 alpha (MIP-1α) (cytokines and chemokines): reductions
- macrophage inflammatory factor 1 beta (MIP-1β) (cytokines and chemokines): reductions
- macrophage inflammatory protein 1 (MIP-1) (cytokines and chemokines): reductions
- macrophage inflammatory protein 2 (MIP-2) (cytokines and chemokines): reductions
- reduction in the average time to find a submerged platform (APP mice): 30%
- soluble human Aβ40 levels (human amyloid beta; brain): significantly reduced
- soluble human Aβ42 levels (human amyloid beta; brain): significantly reduced
- insoluble human Aβ42 levels (human amyloid beta; brains of APP mice): significantly reduced
- total Tau levels (Tau [pS396]; 10 mg/kg or less, 12-15 month old APP mice, after one week): does not alter
- level of phosphorylated Tau (pS396) (Tau [pS396]; brain homogenate, 10 mg/kg or less (10, 5, 2.5, 1.25 mg/kg) IP daily for 1 week, vs DMSO): reduces
- ratio of Tau (phosphorylated Tau (pS396)/total Tau) (Tau [pS396]; brain homogenate, 10 mg/kg or less IP daily for 1 week, vs DMSO): reduces
- reducing the ratio of Tau: lower dosages compared with higher dosages (Tau [pS396]; less than 2.5 mg/kg versus greater than 5.0 mg/kg): more effective
- levels of Tau [2]: reduced
- levels of beta-amyloid [2]: reduced
- levels of synuclein [2]: reduced
- levels of p-tau (AT180) (Western blot) ([3]; 1.25 or 2.5 mg/kg daily, after one week): reduced
- levels of APP/Aβ (Western blot) ([3]; 1.25 or 2.5 mg/kg daily, after one week, actin loading control): reduced
- levels of amyloid, densitometry analysis ([3]; n=5, 3 mutant APP mice, about 2.5 mg/kg or less): significantly reduced
- beta-amyloid (Aβ42) levels (Western blot) ([3]; soluble brain fraction, 1.25 or 2.5 mg/kg daily, one week): effective in reducing
- autophagy and autophagosomes (Beclin, Atg7, Atg12, LC3-I, LC3-II Western blot) [4]: stimulates autophagy and clears autophagosomes
- level of LC3-II/LC3-I, densitometry analysis of LC3-II levels ([4]; n=5): significantly reduces
